Consider 24 compounds from patent US7335632B2, “Beta-secretase inhibitors and methods of use thereof” (CoMentis, Inc., priority 2001, dated 2008).

The target in one assay is Cathepsin D (Homo sapiens, UniProt P07339). Kind of assay: Inhibition of cathepsin D activity (substrate peptide […], MALDI-TOF). It is filed as biochemical. The following applies: pH 4.1, 37 degrees C., substrate NH3-[…]-CO2, MALDI-TOF; read-out: Cath D Ki.
A further assay has as its target T1, memapsin 1 (Homo sapiens, UniProt Q9Y5Z0).
T1 sequence (Q9Y5Z0 63-518): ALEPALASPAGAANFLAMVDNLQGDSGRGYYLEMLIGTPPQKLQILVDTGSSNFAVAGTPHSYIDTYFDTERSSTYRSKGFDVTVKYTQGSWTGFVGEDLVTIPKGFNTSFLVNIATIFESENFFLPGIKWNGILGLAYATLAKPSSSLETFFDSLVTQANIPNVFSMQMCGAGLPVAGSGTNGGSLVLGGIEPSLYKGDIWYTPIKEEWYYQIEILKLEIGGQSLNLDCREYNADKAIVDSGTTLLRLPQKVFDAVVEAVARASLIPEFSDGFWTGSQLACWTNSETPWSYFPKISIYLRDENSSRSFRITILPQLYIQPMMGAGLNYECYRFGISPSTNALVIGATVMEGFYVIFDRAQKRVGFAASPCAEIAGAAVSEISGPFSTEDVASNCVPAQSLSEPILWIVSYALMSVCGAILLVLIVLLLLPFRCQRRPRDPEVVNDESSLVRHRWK
The assay can be described thus: Inhibition of memapsin 1 beta-secretase activity (substrate peptide […], MALDI-TOF). The following applies: pH 4.1, 37 degrees C., substrate NH3-ELDLAVEFWHDR-CO2, MALDI-TOF; read-out: M1 Ki. In kind it is biochemical.

The next assay deals with Aβ production. The assay can be described thus: Cellular Aβ IC50 determination (Aβ40 sandwich ELISA). In kind it is cell-based. As to conditions: Cricetulus griseus, Chinese hamster ovary cells over-expressing human APP695 with London and Swedish mutations, 24 h. How it is done:
The potency of compounds against memapsin 2 activity was determined in a cellular assay of Aβ production. […] Chinese hamster ovary cells that over-express human APP695 with the London and Swedish mutations were seeded in multi-well plates at 10% confluency. Compounds were dissolved in DMSO to concentrations near 1 mM, and diluted into culture media to a final concentration near 4 μM (final 0.4% DMSO). Compounds were diluted serially and applied to cells in multi-well plates 48 h after seeding. Incubation was continued in 5% CO2 at 37 degrees C. for 24 h. Aliquots were removed and assayed for Aβ40 content using a sandwich ELISA (BioSource International). Amount of Aβ40 over the range of concentration of compounds, relative to control incubations, were fit to a 4-parameter IC50 model.
A general note: An ELISA detects its analyte on a solid surface through an enzyme-linked reagent.

A further assay concerns the target memapsin 2 (Homo sapiens, UniProt P56817). The assay can be described thus: Inhibition of memapsin 2 beta-secretase activity toward fluorogenic substrate FS-2. The following applies: pH 4, 37° C., 20 minutes pre-incubation, substrate FS-2, tight-binding model; read-out: M2 Ki. It is filed as biochemical. How it is done: Potency of compounds were determined by measurement of their inhibition of memapsin 2 activity toward a fluorescent substrate. […] Briefly, assays were performed at pH 4, 37° C., by pre-incubation of memapsin 2 enzyme with compound for 20 minutes. Activity measure was initiated by addition of a fluorogenic substrate FS-2 (Bachem Americas, Torrance, Calif.). Fluorescent signal increase over time was measured as a rate of hydrolysis of the peptide substrate.

Some results are limits rather than exact numbers.

The term Ki denotes a dissociation constant, usually derived from enzyme kinetics or from competition with a known ligand. A word on the IC50: it is the concentration that gives 50% inhibition. A high value points to weaker potency in that assay.

Sequence of memapsin 2 (P56817 46-501): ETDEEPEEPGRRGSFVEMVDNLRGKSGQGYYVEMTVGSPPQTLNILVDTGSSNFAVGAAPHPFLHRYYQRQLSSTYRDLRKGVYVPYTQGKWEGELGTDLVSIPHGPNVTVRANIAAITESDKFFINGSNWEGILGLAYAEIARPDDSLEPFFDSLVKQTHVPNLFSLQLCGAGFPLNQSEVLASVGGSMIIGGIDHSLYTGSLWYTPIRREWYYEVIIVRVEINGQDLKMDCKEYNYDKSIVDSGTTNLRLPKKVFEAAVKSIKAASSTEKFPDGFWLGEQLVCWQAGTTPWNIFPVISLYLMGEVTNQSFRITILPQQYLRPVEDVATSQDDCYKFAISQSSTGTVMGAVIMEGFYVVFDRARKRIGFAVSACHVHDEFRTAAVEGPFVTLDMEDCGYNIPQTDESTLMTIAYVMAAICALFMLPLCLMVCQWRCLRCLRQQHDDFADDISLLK
Sequence of Cathepsin D (P07339 65-412, species assumed): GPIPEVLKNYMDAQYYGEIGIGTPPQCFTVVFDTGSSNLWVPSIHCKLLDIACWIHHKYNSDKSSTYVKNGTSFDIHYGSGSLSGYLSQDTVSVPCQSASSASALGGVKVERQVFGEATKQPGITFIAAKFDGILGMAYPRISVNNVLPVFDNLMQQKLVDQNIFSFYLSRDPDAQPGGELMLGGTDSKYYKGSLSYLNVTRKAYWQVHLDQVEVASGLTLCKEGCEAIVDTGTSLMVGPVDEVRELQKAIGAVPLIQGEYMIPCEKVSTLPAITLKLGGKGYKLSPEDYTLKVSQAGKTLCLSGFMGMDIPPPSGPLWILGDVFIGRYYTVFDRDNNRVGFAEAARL

For the compound `CC[C@@H](Cn1nc(C)cc1C)C(=O)N[C@@H](CSC)C(=O)N[C@H](CC(C)C)[C@@H](O)C[C@@H](C)C(=O)N[C@@H](C(=O)NCC(C)C)C(C)C` [Structure 3], the Ki on Cathepsin D was < 100 nM; on memapsin 1 it was 100 to 1000 nM; on memapsin 2, < 100 nM. In addition, the IC50 with Aβ production is < 6000 nM.

In the case of `CSC[C@H](NC(=O)CCn1nc(C)cc1C)C(=O)N[C@H](CC(C)C)[C@@H](O)C[C@@H](C)C(=O)N[C@@H](C(=O)NCC(C)C)C(C)C` [Structure 4], the Ki was < 100 nM on Cathepsin D, 100 to 1000 nM at memapsin 1 and 100 to 1000 nM at memapsin 2. This compound registered an IC50 with Aβ production of 6000 to 100000 nM.

On to `Cc1cc(C)n(CCC(=O)N[C@@H](CS(C)(=O)=O)C(=O)N[C@@H](CC(C)C)[C@@H](O)C[C@@H](C)C(=O)N[C@@H](C(=O)NCC(C)C)C(C)C)n1` [Structure 5], for which the values for the Ki at Cathepsin D, at memapsin 1 and at memapsin 2 were 100 to 1000 nM, 100 to 1000 nM and < 100 nM, respectively. In the assay on Aβ production, the IC50 is > 100000 nM.

Take `CC[C@@H](Cn1nc(C)cc1C)C(=O)N[C@@H](CS(C)(=O)=O)C(=O)N[C@@H](CC(C)C)[C@@H](O)C[C@@H](C)C(=O)N[C@@H](C(=O)NCC(C)C)C(C)C` [Structure 7]: the Ki on Cathepsin D, at memapsin 1 and at memapsin 2 was < 100 nM each time. Further, the IC50 with Aβ production was > 100000 nM.

Regarding `CC[C@@H](Cn1nc(C)cc1C)C(=O)N[C@@H](C[S+](C)[O-])C(=O)N[C@@H](CC(C)C)[C@@H](O)C[C@@H](C)C(=O)N[C@@H](C(=O)NCC(C)C)C(C)C` (some centres unmarked) [Structure 8], the Ki on Cathepsin D is 100 to 1000 nM; on memapsin 1 it was < 100 nM; at memapsin 2, < 100 nM. The IC50 in the assay with Aβ production was < 6000 nM.

With `Cc1cc(C)n(COC(=O)N[C@@H](C[S+](C)[O-])C(=O)N[C@@H](CC(C)C)[C@@H](O)C[C@@H](C)C(=O)N[C@H](C(=O)NCC(C)C)C(C)C)n1` (some centres unmarked) [Structure 9], the Ki at Cathepsin D was 100 to 1000 nM; at memapsin 1, < 100 nM; at memapsin 2, < 100 nM. The IC50 in the assay with Aβ production was < 6000 nM.

Turning to `Cc1csc(COC(=O)N[C@@H](CS(C)(=O)=O)C(=O)N[C@H](CC(C)C)[C@@H](O)C[C@@H](C)C(=O)N[C@@H](C(=O)NCC(C)C)C(C)C)n1` [Structure 16], the inhibition constant (Ki) at Cathepsin D was 100 to 1000 nM; at memapsin 1, 100 to 1000 nM; on memapsin 2, < 100 nM. In addition, the IC50 in the assay on Aβ production lay within 6000 to 100000 nM.

Take `CSC[C@H](NC(=O)OCc1nc(C)cs1)C(=O)N[C@H](CC(C)C)[C@@H](O)C[C@@H](C)C(=O)N[C@@H](C(=O)NCC(C)C)C(C)C` [Structure 17]: the figures for the Ki at Cathepsin D, at memapsin 1 and on memapsin 2 were < 100 nM, 100 to 1000 nM and < 100 nM, respectively. In the assay on Aβ production, the IC50 is 6000 to 100000 nM.

`C=CCS(=O)(=O)C[C@H](NC(=O)CCn1nc(C)cc1C)C(=O)N[C@H](CC(C)C)[C@@H](O)C[C@@H](C)C(=O)N[C@@H](C(=O)NCC(C)C)C(C)C` [Structure 18]: the Ki at Cathepsin D, at memapsin 1 and at memapsin 2 was < 100 nM each time. Further, the IC50 in the assay on Aβ production was > 100000 nM.

Turning to `CSC[C@H](NC(=O)OCc1nc(C)cs1)C(=O)N[C@H](CC(C)C)[C@@H](O)C[C@@H](C)C(=O)NCC1CCC(C(=O)OCc2ccccc2)CC1` (some centres unmarked) [Structure 76], the Ki at Cathepsin D was < 100 nM; on memapsin 1, > 1000 nM; on memapsin 2 it was > 1000 nM.

For the compound `CSC[C@H](NC(=O)OCc1nc(C)cs1)C(=O)N[C@H](CC(C)C)[C@@H](O)C[C@@H](C)C(=O)N[C@@H](c1ncc[nH]1)C(C)C` [Structure 80], the Ki is 100 to 1000 nM on Cathepsin D, > 1000 nM at memapsin 1 and > 1000 nM on memapsin 2.

`CSC[C@H](NC(=O)OCc1nc(C)cs1)C(=O)N[C@H](CC(C)C)[C@@H](O)C[C@@H](C)C(=O)N[C@H](CN(C)C)C(=O)NC(C)C` [Structure 81]: the Ki at Cathepsin D, on memapsin 1 and on memapsin 2 was > 1000 nM each time.

Turning to `Cc1csc(COC(=O)N[C@@H](CS(C)(=O)=O)C(=O)N[C@H](CC(C)C)[C@@H](O)C[C@@H](C)C(=O)NCC2CCC(C(=O)OCc3ccccc3)CC2)n1` (some centres unmarked) [Structure 82], the Ki is < 100 nM at Cathepsin D, > 1000 nM at memapsin 1 and > 1000 nM on memapsin 2.

In the case of `Cc1csc(COC(=O)N[C@@H](CS(C)(=O)=O)C(=O)N[C@@H](CC(C)C)[C@@H](O)C[C@@H](C)C(=O)N[C@H]2CCNC2=O)n1` [Structure 83], the Ki on Cathepsin D, on memapsin 1 and on memapsin 2 was > 1000 nM in each case.

Consider `CSC[C@H](NC(=O)OCc1nc(C)oc1C)C(=O)N[C@H](CC(C)C)[C@@H](O)C[C@@H](C)C(=O)N[C@@H](C(=O)OCc1ccccc1)C(C)C` [Structure 84], for which the Ki is 100 to 1000 nM on Cathepsin D, > 1000 nM at memapsin 1 and > 1000 nM at memapsin 2.

Turning to `Cc1nc(COC(=O)N[C@@H](CS(C)(=O)=O)C(=O)N[C@H](CC(C)C)[C@@H](O)C[C@@H](C)C(=O)N[C@@H](C(=O)OCc2ccccc2)C(C)C)c(C)o1` [Structure 85], the Ki at Cathepsin D, at memapsin 1 and on memapsin 2 was 100 to 1000 nM in each case.

On to `Cc1nc(COC(=O)N[C@@H](CS(C)(=O)=O)C(=O)N[C@H](CC(C)C)[C@@H](O)C[C@@H](C)C(=O)N[C@@H](C(=O)NCc2cccnc2)C(C)C)c(C)o1` [Structure 87], for which the Ki on Cathepsin D was 100 to 1000 nM; at memapsin 1, < 100 nM; on memapsin 2 it was < 100 nM.

For the compound `CC[C@H](C[C@H](O)[C@@H](CC(C)C)NC(=O)[C@H](CSC)NC(=O)OCc1nc(C)oc1C)C(=O)N[C@@H](C(=O)NCC(C)C)C(C)C` [Structure 89], the Ki on Cathepsin D is < 100 nM; on memapsin 1, 100 to 1000 nM; on memapsin 2 it was < 100 nM.

In the case of `CSC[C@H](NC(=O)OCc1nc(C)cs1)C(=O)N[C@H](CC(C)C)[C@@H](O)C[C@@H](C)C(=O)N[C@@H](C(N)=O)C(C)C` [Structure 90], in the assay with Aβ production, the 50% inhibitory concentration (IC50) is < 6000 nM. Besides, the inhibitory constant (Ki) on memapsin 2 was > 1000 nM.

`Cc1nc(COC(=O)N[C@@H](CS(C)(=O)=O)C(=O)N[C@H](CC(C)C)[C@@H](O)C[C@@H](C)C(=O)N[C@@H](C(=O)NCc2ccccn2)C(C)C)c(C)o1` [Structure 91]: the IC50 in the assay on Aβ production is > 100000 nM. For the same compound, on memapsin 2, the inhibition constant Ki is < 100 nM.

Take `CC[C@H](C[C@H](O)[C@@H](CC(C)C)NC(=O)[C@H](CS(C)(=O)=O)NC(=O)OCc1nc(C)oc1C)C(=O)N[C@@H](C(=O)NCC(C)C)C(C)C` [Structure 92]: in the assay on Aβ production, the IC50 is < 6000 nM.

With `CSC[C@H](NC(=O)OCc1nc(C)oc1C)C(=O)N[C@@H](CC(C)C)[C@@H](O)C[C@@H](C)C(=O)N[C@H](C(=O)Nc1nccs1)C(C)C` [Structure 96], the figures for the Ki on Cathepsin D, on memapsin 1 and on memapsin 2 were < 100 nM, 100 to 1000 nM and 100 to 1000 nM, respectively.

For `CSC[C@H](NC(=O)[C@@H](C)Cc1nc(C)oc1C)C(=O)N[C@@H](CC(C)C)[C@@H](O)C[C@@H](C)C(=O)N[C@H](C(=O)NCC(C)C)C(C)C` [Structure 97], the Ki is < 100 nM at Cathepsin D, 100 to 1000 nM at memapsin 1 and < 100 nM at memapsin 2.

Regarding `COc1ccc(C[C@H](NC(=O)[C@H](CS(C)(=O)=O)NC(=O)OCc2nc(C)oc2C)[C@@H](O)C[C@@H](C)C(=O)N[C@H](C(=O)NCC(C)C)C(C)C)cc1` [Structure 98], the Ki is < 100 nM on Cathepsin D, 100 to 1000 nM on memapsin 1 and > 1000 nM on memapsin 2.
